The target in this assay is T1, menin/MLL binding (biotinylated wild-type or mutated menin and MLL-AF9 fusion protein) (Homo sapiens, UniProt O00255).
T1 construct: biotinylated (1) wild-type menin or (2) mutated menin (described in Nature (2012) Vol. 482, pp. 542-548); fused on or other part: Biotin attached chemically (Sulfo-NHS-Biotin); no fused second protein is printed for menin
T1 sequence (O00255 1-459 limits assumed): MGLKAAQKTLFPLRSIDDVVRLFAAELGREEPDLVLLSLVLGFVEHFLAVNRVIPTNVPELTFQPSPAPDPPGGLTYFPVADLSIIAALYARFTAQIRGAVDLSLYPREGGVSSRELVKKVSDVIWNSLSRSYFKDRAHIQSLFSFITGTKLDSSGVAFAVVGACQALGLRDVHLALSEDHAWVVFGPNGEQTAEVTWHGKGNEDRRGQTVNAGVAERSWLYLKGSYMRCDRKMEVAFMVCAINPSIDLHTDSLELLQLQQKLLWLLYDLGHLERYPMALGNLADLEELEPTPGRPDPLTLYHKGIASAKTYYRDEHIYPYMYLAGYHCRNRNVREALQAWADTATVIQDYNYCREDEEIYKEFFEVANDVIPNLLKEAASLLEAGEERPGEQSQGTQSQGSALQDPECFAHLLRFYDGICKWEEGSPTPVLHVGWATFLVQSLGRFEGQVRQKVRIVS
Put plainly: Assay 1 (Binding Assay): AlphaLISA menin/MLL binding. To be noted: 5 nM biotinylated menin, MLL-AF9-FLAG lysate. How it is done:
Potencies of inhibitor compounds against menin/MLL binding were assessed by AlphaLISA assay using biotinylated (1) wild-type menin or (2) mutated menin (described in Nature (2012) Vol. 482, pp. 542-548) and MLL-AF9 fusion protein bearing a FLAG epitope at its C-terminus. Menin proteins were expressed in E. coli and covalently modified with biotin using EZ-Link™ Sulfo-NHS-Biotin (ThermoFisher Cat. No. 21217) according to manufacturer's protocol. MLL1-1,396 fused to AF91-92 and the C-terminal FLAG peptide was expressed in HEK293 cells and used as a lysate cleared at 21,000×g for 10 min.
Compounds (2 μL of solutions in DMSO) were dispensed in white 96-well half-area plates (Corning Cat. No. 3693) and incubated for 30 min at RT with 5 nM biotinylated menin and appropriate amount of MLL-AF9-FLAG lysate in 40 μL of 50 mM Tris-HCl buffer pH 7.4 containing 5% (v/v) DMSO, 50 mM NaCl, 0.01% (w/v) bovine serum albumin (BSA) and 1 mM DTT. To this incubation mixture, 40 μl of AlphaLISA anti-FLAG acceptor (PerkinElmer Cat. No. AL112C) and streptavidin donor (PerkinElmer Cat. No. 6760002) beads (10 μg/mL each) was added and incubation continued at RT for 60 min. Alpha (amplified luminescent proximity homogeneous assay) signal was measured on an Envision multi-label plate reader at the end of the incubation. All steps were conducted under dim fluorescent light.
These percent inhibition values were regressed against compound concentrations in the assay using four parameter logit non-linear curve fitting (XLFit, IDBS). The IC50 values were derived from the curve fitting as inflection points on the dose-response curves and are set out in Table 14 below.

22 compounds from patent US10899758B2, “Inhibitors of the menin-MLL interaction” (Vitae Pharmaceuticals, LLC, priority 2016, dated 2021) can be followed below.

For orientation: IC50 means the midpoint of a concentration-inhibition curve. A higher IC50 goes with weaker potency in that assay.

In the case of `CC(C)N(C)C(=O)c1cc(F)ccc1-n1cc([C@H]2CC[C@@H](N3CCOCC3)CC2)c2ccncc21` [Example 118, 5-fluoro-N-isopropyl-N-methyl-2-(3-(cis-4-morpholinocyclohexyl)-1H-pyrrolo[2,3-c]pyridin-1-yl)benzamide], the concentration for half-maximal inhibition (IC50) is less than 100 nM. Under `CC(C)N(C)C(=O)c1cc(F)ccc1-n1cc(-c2ccc3c(c2)CCNC3)c2ccncc21` [Int. 17C, 5-fluoro-N-isopropyl-N-methyl-2-(3-(1,2,3,4-tetrahydroisoquinolin-6-yl)-1H-pyrrolo[2,3-c]pyridin-1-yl)benzamide] stands 100 to 1000 nM; under “5-fluoro-N-isopropyl-N- methyl-2-(3-(2-((1- (methylsulfonyl) piperidin-4-yl)methyl) octahydrocyclopenta [c]pyrrol-5-yl)- 1H-pyrrolo[2,3-c] pyridin-1-yl) benzamide [Example 91]”, less than 100 nM; under `CC(C)N(C)C(=O)c1cc(F)ccc1-n1cc([C@H]2CC[C@@H](N3CCC[C@H]3CO)CC2)c2ccncc21` [Example 97, 5-fluoro-2-(3-(cis-4-((S)-2-(hydroxymethyl)pyrrolidin-1-yl)cyclohexyl)-1H-pyrrolo[2,3-c]pyridin-1-yl)-N-isopropyl-N-methylbenzamide], less than 100 nM. Under `CC(C)N(C)C(=O)c1cc(F)ccc1-n1cc([C@H]2CC[C@H](N3CCN(CCO)CC3)CC2)c2ccncc21` [Example 114, 5-fluoro-2-(3-(trans-4-(4-(2-hydroxyethyl)piperazin-1-yl)cyclohexyl)-1H-pyrrolo[2,3-c]pyridin-1-yl)-N-isopropyl-N-methylbenzamide] stands less than 100 nM; under `CC(C)N(C)C(=O)c1cc(F)ccc1-n1cc([C@H]2CC[C@H](N3CCC(O)CC3)CC2)c2ccncc21` [Example 108, 5-fluoro-2-(3-(trans-4-(4-hydroxypiperidin-1-yl)cyclohexyl)-1H-pyrrolo[2,3-c]pyridin-1-yl)-N-isopropyl-N-methylbenzamide], 100 to 1000 nM; under `CC(C)N(C)C(=O)c1cc(F)ccc1-n1c(=O)n(C2CCN(CC3CCCCC3)CC2)c2ccncc21` [Example 81, 2-(1-(1-(cyclohexylmethyl)piperidin-4-yl)-2-oxo-1,2-dihydro-3H-imidazo[4,5-c]pyridin-3-yl)-5-fluoro-N-isopropyl-N-methylbenzamide], less than 100 nM. For `Fc1ccc(-n2cc(C3CCN(CC4CCOCC4)CC3)c3ncncc32)cc1` [Example 65, 5-(4-fluorophenyl)-7-(1-((tetrahydro-2H-pyran-4-yl)methyl)piperidin-4-yl)-5H-pyrrolo[3,2-d]pyrimidine], the IC50 was not below 1000 nM. On to `CC(C)N(C)C(=O)c1cc(F)ccc1-n1cc(C2CC3CN(C[C@H]4C[C@H](NS(C)(=O)=O)C4)CC3C2)c2ccncc21` (stereo partly drawn) [Example 89, 5-fluoro-N-isopropyl-N-methyl-2-(3-(2-((trans-3-(methylsulfonamido)cyclobutyl)methyl)octahydrocyclopenta[c]pyrrol-5-yl)-1H-pyrrolo[2,3-c]pyridin-1-yl)benzamide], for which the IC50 was less than 100 nM. `Cc1c(CN2CCC(c3cn(-c4ccc(F)cc4)c4cncnc34)CC2)ccc2[nH]c(C#N)cc12` [Example 66, 5-((4-(5-(4-fluorophenyl)-5H-pyrrolo[3,2-d]pyrimidin-7-yl)piperidin-1-yl)methyl)-4-methyl-1H-indole-2-carbonitrile] displayed an IC50 of 100 to 1000 nM. Then `CC(C)N(C)C(=O)c1cc(F)ccc1-n1cc(C2CCCN(Cc3ccc4[nH]c(=O)[nH]c4c3)C2)c2ccncc21` (single isomer, unassigned) [Example 43B, 5-fluoro-N-isopropyl-N-methyl-2-(3-(1-((2-oxo-2,3-dihydro-1H-benzo[d]imidazol-5-yl)methyl)piperidin-3-yl)-1H-pyrrolo[2,3-c]pyridin-1-yl)benzamide], with less than 100 nM; and `Fc1ccc(-n2cc(C3CCN(Cc4ccc5[nH]ccc5c4)CC3)c3ncncc32)cc1` [Example 69, 7-(1-((1H-indol-5-yl)methyl)piperidin-4-yl)-5-(4-fluorophenyl)-5H-pyrrolo[3,2-d]pyrimidine], with 100 to 1000 nM; and `Fc1ccc(-n2cc(C3CCN(Cc4ccc5cc[nH]c5c4)CC3)c3ncncc32)cc1` [Example 68, 7-(1-((1H-indol-6-yl)methyl)piperidin-4-yl)-5-(4-fluorophenyl)-5H-pyrrolo[3,2-d]pyrimidine], with not below 1000 nM.

As for `CC(C)N(C)C(=O)c1cc(F)ccc1-n1cc(C2CCN(C)CC2)c2ccncc21` [Example 17, 5-fluoro-N-isopropyl-N-methyl-2-(3-(1-methylpiperidin-4-yl)-1H-pyrrolo[2,3-c]pyridin-1-yl)benzamide], the IC50 fell in the range of 100 to 1000 nM. Then `O=c1[nH]c2ccc(CN3CCC(c4cn(-c5ccc(F)cc5)c5cncnc45)CC3)cc2[nH]1` [Example 67, 5-((4-(5-(4-fluorophenyl)-5H-pyrrolo[3,2-d]pyrimidin-7-yl)piperidin-1-yl)methyl)-1H-benzo[d]imidazol-2(3H)-one], with not below 1000 nM. Under `CC(C)N(C)C(=O)c1cc(F)ccc1-n1c(=O)n(C2CCN(Cc3ccc(F)cc3)CC2)c2ccncc21` [Example 83, 5-fluoro-2-(1-(1-(4-fluorobenzyl)piperidin-4-yl)-2-oxo-1,2-dihydro-3H-imidazo[4,5-c]pyridin-3-yl)-N-isopropyl-N-methylbenzamide] stands 100 to 1000 nM; under `CC(C)N(C)C(=O)c1cc(F)ccc1-n1cc([C@H]2CC[C@@H](N3CCN(CCO)CC3)CC2)c2ccncc21` [Example 115, 5-fluoro-2-(3-(cis-4-(4-(2-hydroxyethyl)piperazin-1-yl)cyclohexyl)-1H-pyrrolo[2,3-c]pyridin-1-yl)-N-isopropyl-N-methylbenzamide], 100 to 1000 nM; under `CC(C)N(C)C(=O)c1cc(F)ccc1-n1cc(C2CCN(C(=O)OC(C)(C)C)CC2)c2ccncc21` [Int. 1, tert-butyl 4-(1-(4-fluoro-2-(isopropyl(methyl)carbamoyl)phenyl)-1H-pyrrolo[2,3-c]pyridin-3-yl)piperidine-1-carboxylate], 100 to 1000 nM. Under `CC(C)N(C)C(=O)c1cc(F)ccc1-n1cc([C@H]2CC[C@H](N3CC[C@@H](CO)C3)CC2)c2ccncc21` [Example 102, 5-fluoro-2-(3-(trans-4-((R)-3-(hydroxymethyl)pyrrolidin-1-yl)cyclohexyl)-1H-pyrrolo [2,3-c]pyridin-1-yl)-N-isopropyl-N-methylbenzamide] stands less than 100 nM; under `Fc1ccc(CN2CCC(c3cn(-c4ccc(F)cc4OCC4CC4)c4cnccc34)CC2)cc1` [Example 35, 1-(2-(cyclopropylmethoxy)-4-fluorophenyl)-3-(1-(4-fluorobenzyl)piperidin-4-yl)-1H-pyrrolo[2,3-c]pyridine], less than 100 nM. For `O=c1[nH]c2ccc(CN3CCC(c4cn(-c5ccccc5)c5cncnc45)CC3)cc2[nH]1` [Example 73, 5-((4-(5-phenyl-5H-pyrrolo[3,2-d]pyrimidin-7-yl)piperidin-1-yl)methyl)-1H-benzo[d]imidazol-2(3H)-one], the IC50 was not below 1000 nM.

The compound `CC(C)N(C)C(=O)c1cc(F)ccc1-n1cc(C2CCC3(CC2)OCCO3)c2ccncc21` [Int. 17A, 2-(3-(1,4-dioxaspiro[4.5]decan-8-yl)-1H-pyrrolo[2,3-c]pyridin-1-yl)-5-fluoro-N-isopropyl-N-methylbenzamide] had an IC50 not below 1000 nM.
